This note sets out measurements from PMC3424541 (2012).

This test addresses T1, HsRAD51 (Homo sapiens, UniProt Q06609).
T1 sequence (Q06609 2-339): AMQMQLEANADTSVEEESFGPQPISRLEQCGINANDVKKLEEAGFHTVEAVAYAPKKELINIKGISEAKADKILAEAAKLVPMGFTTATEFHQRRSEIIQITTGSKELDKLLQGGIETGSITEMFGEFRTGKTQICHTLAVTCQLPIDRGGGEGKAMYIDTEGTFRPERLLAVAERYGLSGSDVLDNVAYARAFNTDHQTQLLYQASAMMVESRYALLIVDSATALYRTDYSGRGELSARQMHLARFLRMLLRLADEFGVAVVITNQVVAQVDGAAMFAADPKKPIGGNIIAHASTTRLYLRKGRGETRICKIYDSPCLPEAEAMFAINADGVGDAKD
Briefly: LC-MS/MS of the covalent adduct at C319. It is filed as binding.

`O=C1C(Cl)=C(N2CCOCC2)C(=O)N1c1ccc(Cl)c(Cl)c1` [RI-1, 3-chloro-1-(3,4-dichlorophenyl)-4-(4-morpholinyl)-1H-pyrrole-2,5-dione] returned an IC50 of 5 to 30 µM.
